Experiment: Body weight change in dexamethasone muscle atrophy mouse model
Format: in vivo, C57BL/6 mice
Details: DEX group: dexamethasone 10 mg/kg/day i.p. 4 weeks, olive oil orally; at sacrifice
Protocol: Specifically, three-week-old male C57BL/6 mice were provided with free access to water and food and were acclimated under conditions of 23±2° C., relative humidity of 50±5%, and a 12-hour light/dark cycle. […] In the untreated group, an equivalent volume of saline was administered intraperitoneally. Body weight and food intake were evaluated daily. The experiment was conducted with the approval of the Pukyong National University Animal Care and Use Committee, in accordance with Pukyong National University's animal experiment ethics regulations.

C[C@@H]1C[C@H]2[C@@H]3CCC4=CC(=O)C=C[C@]4(C)[C@@]3(F)[C@@H](O)C[C@]2(C)[C@@]1(O)C(=O)CO [DEX, dexamethasone]
Body weight (g) Sacrifice [B]: 27.9 ± 3.25 g

From patent publication US20250025523A1, “COMPOSITION FOR PREVENTING OR TREATING MUSCLE DISEASE COMPRISING SARGASSUM SERRATIFOLIUM EXTRACT” (PUKYONG NATIONAL UNIVERSITY INDUSTRY- UNIVERSITY …, priority 2021, published 2025)
